Experimental data published in ChEMBL document CHEMBL3797130, “Development of novel proteasome inhibitors based on phthalazinone scaffold” (Bioorg Med Chem Lett, 2016).
Calls of active or inactive are those of the source. The calls are words filed in the database; no cut-off is given here.

Legend:
[1] = molecular target: T1, Proteasome Macropain subunit MB1 (Homo sapiens) (UniProt P28074); experiment: Inhibition of chymotrypsin-like activity of 20S human proteasome assessed as […] at 25 ug/ml using Promega proteasome-Glo-3 substrate incubated for 15 mins by luminescence assay
T1 sequence (whole entry): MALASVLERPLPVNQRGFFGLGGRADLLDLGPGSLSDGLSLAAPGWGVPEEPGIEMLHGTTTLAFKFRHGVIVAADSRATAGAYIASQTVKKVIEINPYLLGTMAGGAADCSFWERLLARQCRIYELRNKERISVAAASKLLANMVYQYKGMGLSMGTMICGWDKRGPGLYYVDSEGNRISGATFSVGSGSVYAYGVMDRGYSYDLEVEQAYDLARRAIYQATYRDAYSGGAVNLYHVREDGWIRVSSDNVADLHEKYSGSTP

[2] = molecular target: T2, Proteasome Macropain subunit MB1 (Homo sapiens, UniProt P28074); experiment: Inhibition of chymotrypsin-like activity of 20S human proteasome assessed as […] at using Promega proteasome-Glo-3 substrate incubated for 15 mins by luminescence assay
T2 sequence (P28074 whole entry): T1 sequence (whole entry)

## O=c1c2ccccc2c(-c2ccc(OCCCC[P+](c3ccccc3)(c3ccccc3)c3ccccc3)cc2)nn1-c1cccs1
[1]
  inhibition: 93.2%
[2]
  IC50: 17.6 µM

## CCN(CC)c1ccc(-n2nc(-c3ccc(OCCCCN4CCCCC4)cc3)c3ccccc3c2=O)cc1
[1]
  inhibition: 8%

## CCN(CC)c1ccc(-n2nc(-c3ccc(OCCCC[P+](c4ccccc4)(c4ccccc4)c4ccccc4)cc3)c3ccccc3c2=O)cc1
[1]
  inhibition: 99.1%
[2]
  IC50: 10.2 µM

## CCN(CC)c1ccc(-n2nc(-c3ccc(OCCCC[n+]4ccccc4)cc3)c3ccccc3c2=O)cc1
[1]
  inhibition: 8.6%

## O=c1c2ccccc2c(-c2ccc(OCCCC[P+](c3ccccc3)(c3ccccc3)c3ccccc3)cc2)nn1Cc1ccccc1
[1]
  inhibition: 80.9%
[2]
  IC50: 11.9 µM

## CCN(CC)c1ccc(-n2nc(-c3ccc(OCCCCN4CCCC4)cc3)c3ccccc3c2=O)cc1
[1]
  inhibition: 13.2%

## CCn1nc(-c2ccc(OCCCC[P+](c3ccccc3)(c3ccccc3)c3ccccc3)cc2)c2ccccc2c1=O
[1]
  inhibition: inactive

## O=c1c2ccccc2c(-c2ccc(OCCCC[P+](c3ccccc3)(c3ccccc3)c3ccccc3)cc2)nn1CC1CC1
[1]
  inhibition: 48.2%
[2]
  IC50: 23 µM

## CCCCn1nc(-c2ccc(OCCCC[P+](c3ccccc3)(c3ccccc3)c3ccccc3)cc2)c2ccccc2c1=O
[1]
  inhibition: 35.8%

## CC(C)Cn1nc(-c2ccc(OCCCC[P+](c3ccccc3)(c3ccccc3)c3ccccc3)cc2)c2ccccc2c1=O
[1]
  inhibition: 52.4%
[2]
  IC50: 26 µM

## O=c1c2ccccc2c(-c2ccc(OCCCC[P+](c3ccccc3)(c3ccccc3)c3ccccc3)cc2)nn1-c1ccc2ccccc2c1
[1]
  inhibition: 98.7%
[2]
  IC50: 13.8 µM

## Cn1nc(-c2ccc(OCCCC[P+](c3ccccc3)(c3ccccc3)c3ccccc3)cc2)c2ccccc2c1=O
[1]
  inhibition: inactive

## CCN(CC)c1ccc(-n2nc(-c3ccc(OCCCCN4CCOCC4)cc3)c3ccccc3c2=O)cc1
[1]
  inhibition: 5.1%

## O=c1c2ccccc2c(-c2ccc(OCCCC[P+](c3ccccc3)(c3ccccc3)c3ccccc3)cc2)nn1-c1ccccc1
[1]
  inhibition: 99.5%
[2]
  IC50: 9.88 µM

## CCN(CC)c1ccc(-n2nc(-c3ccc(OCCCCBr)cc3)c3ccccc3c2=O)cc1
[1]
  inhibition: inactive

## O=c1c2ccccc2c(-c2ccc(OCCCC[P+](c3ccccc3)(c3ccccc3)c3ccccc3)cc2)nn1CC1CCCCC1
[1]
  inhibition: 84.9%
[2]
  IC50: 16.1 µM

## CCN(CC)c1ccc(-n2nc(-c3ccc(OCCCC[n+]4ccn(C)c4)cc3)c3ccccc3c2=O)cc1
[1]
  inhibition: 5.8%

## CCN(CC)c1ccc(-n2nc(-c3ccc(OCCCCP(c4ccccc4)c4ccccc4)cc3)c3ccccc3c2=O)cc1
[1]
  inhibition: 19.6%

## CNc1ccc(-n2nc(-c3ccc(OCCCC[P+](c4ccccc4)(c4ccccc4)c4ccccc4)cc3)c3ccccc3c2=O)cc1
[1]
  inhibition: 94.3%
[2]
  IC50: 14.2 µM

## CCN(CC)c1ccc(-n2nc(-c3ccc(OCCCC[N+](CC)(CC)CC)cc3)c3ccccc3c2=O)cc1
[1]
  inhibition: 10.3%

## O=c1c2ccccc2c(-c2ccc(OCCCC[P+](c3ccccc3)(c3ccccc3)c3ccccc3)cc2)nn1CC1CCC1
[1]
  inhibition: 70.5%
[2]
  IC50: 21.5 µM

## CCCn1nc(-c2ccc(OCCCC[P+](c3ccccc3)(c3ccccc3)c3ccccc3)cc2)c2ccccc2c1=O
[1]
  inhibition: 12.1%

## CCN(CC)c1ccc(-n2nc(-c3ccc(OCCCC[P+](C4CCCCC4)(C4CCCCC4)C4CCCCC4)cc3)c3ccccc3c2=O)cc1
[1]
  inhibition: 98.5%
[2]
  IC50: 13.3 µM
